# According to patent publication US12076304B2, “Compositions comprising 15-HEPE and methods of treating or preventing hematologic disorders, and/or related diseases” (priority 2020, dated 2024):
# Marks after values point to notes of the source that are not given here.
# How the values were obtained:
# [1] = system: TGF-β induced epithelial mesenchymal transition (EMT) protein production; assay: TGF-β induced EMT protein production in HepG2 cells; format: cell-based, human; conditions: increasing doses for 1 hour, then 200 pM TGF-β for 48 hours
# Description: (§1) The effects of 15-HEPE on TGF-β-induced signaling and cellular responses were determined. To test the effect of 15-HEPE on TGF-β-induced signaling, the activities of 15-HEPE to regulate TGF-β-stimulated Smad2 phosphorylation and nuclear translocation, both of which are key signaling events leading to TGF-β-induced cellular responses, were tested. One important biological activity of TGF-β is transcriptional activation of genes responsible for epithelial-mesenchymal transition (EMT), which is a crucial event in wound healing, tissue fibrosis, and cancer progression. The effect of 15-HEPE on TGFβ-induced epithelial mesenchymal transition related proteins (such as fibronectin, PAI-1, and N-cadherin etc.) expression in HepG2 and LXR cells were assessed. HepG2 cells (human hepatoma cell line) were treated in increasing doses of 15-HEPE stage II in DMEM containing 0.1% of FBS for 1 hour and continually stimulated with or without 200 picomolar (pM) of TGF-β for 48 hours.
# (§2) HepG2 cells (human hepatoma cell line) were treated in increasing doses of 15-HEPE stage II in DMEM containing 0.1% of FBS for 1 hour and continually stimulated with or without 200 picomolar (pM) of TGF-β for 48 hours. The two panels shown in FIG. 18A are two separate experiments run under the same experimental conditions.
# [2] = system: TGF-β-stimulated intracellular signaling (SMAD2/3 phosphorylation); assay: TGF-β-stimulated SMAD2/3 phosphorylation in LX2 liver stellate cells; format: cell-based, human; conditions: 0 μM to 100 μM for 24 hours, then 30 min TGF-β
# [3] = system: TβR-II (type II TGF-β receptor); assay: Sucrose density gradient analysis in Mv1Lu cells, TβR-II; format: cell-based, mink; conditions: for translocation and degradation of type II TGF-β receptors: summary of Example 3, free acid or ethyl ester form
# Description: (§3) Sucrose gradient ultracentrifugation and confocal microscopy were used to identify 15-HEPE induced microdomain translocation of TGF-β receptors […]. Sucrose density gradient analysis of TGF-β receptors was conducted in the plasma membranes of Mv1Lu cells (mink lung epithelial cell) treated with 100 μM of 15-HEPE and an equal volume of DMSO (dimethyl sulfoxide) at 37° C. for 0, 1, 4, and 24 hours, and the cell lysates from these treated cells were subjected to sucrose density gradient ultracentrifugation. The sucrose gradient fractions were then analyzed by Western blot analysis using anti-Tβ(type I TGF-β receptor), anti-TβR-II (type II TGF-β receptor), anti-TβR-III (type III TGF-β receptor, betaglycan), anti-EGFR (epidermal growth factor receptor), and anti-caveolin-1 antibodies. The lipid raft/caveolae, and non-lipid raft microdomain localization of TβR-I, TβR-II, TβR-III, EGFR and caveolin-1 in the plasma membrane of untreated cells or cells treated with 15-HEPE were assessed to determine the effects of 15-HEPE on the membrane microdomain localization of the TGF-β receptors.
# A 15-HEPE sucrose density gradient analysis of TGF-β receptors was conducted in the plasma membranes of mink lung epithelial cell (Mv1 Lu) cells treated with 100 μM of 15-HEPE and an equal volume of dimethyl sulfoxide (DMSO) at 37° C. for 0, 1, 4, and 24 hours, and the cell lysates from these treated cells were subjected to sucrose density gradient ultracentrifugation. The sucrose gradient fractions were then analyzed by Western blot analysis using anti-TβR-I (type I TGF-β receptor—FIG. 18C), anti-TβR-II (type II TGF-β receptor-FIG. 18D), anti-TβR-III (type III TGF-β receptor, betaglycan-FIG. 18E), anti-EGFR (epidermal growth factor receptor-FIG. 18F), and anti-caveolin-1 antibodies (FIG. 18G). Fractions 4 to 5 contained lipid rafts/caveolae whereas fractions 7-10 were non-lipid raft fractions. […] Stars(*) indicate 15-HEPE increased abundance of TβR-I (24 hours) in the fraction in comparison with that of the control and shorter treatment durations (FIG. 18C). […] The triangles (▾) indicate translocation and decreased abundance of TβR-II in the fraction in comparison with control cells (FIG. 18D).
# [4] = system: Sprague Dawley rats; assay: 26 week oral gavage toxicity study in rats: haematology; format: in vivo; conditions: 26 weeks; for Red blood cell count (RBC), Mean / Red Cell Distribution Width (RDW), Mean / Reticulocyte count (RETIC), Mean: male rats; for Red blood cell count (RBC), Mean: vehicle 8.38; for Red Cell Distribution Width (RDW), Mean: vehicle 14.98; for Reticulocyte count (RETIC), Mean: vehicle 219.51
# Description: (§4) The test and control items were administered to the appropriate animals by once daily oral gavage 7 days a week for a minimum of 26 weeks. The volume for each animal was based on the most recent body weight measurements. The doses were given using a syringe with attached gavage cannula. The first day of dosing was designated as Day 1. The dosing formulations were removed from the refrigerator and stirred for at least 30 minutes before dosing. The dosing formulations were also stirred continuously during dosing.
# (§5) Sample Collection: Blood was collected via the tail vein unless immediately prior to necropsy, when blood was collected from the orbital sinus under non-recoverable isoflurane anesthesia. Blood was collected in ascending animal order unless samples were collected prior to necropsy where the order of euthanasia was followed. Additional blood samples were obtained (e.g. due to clotting of non-serum samples) if permissible sampling frequency and blood volume were not exceeded. After collection, samples were transferred to the appropriate laboratory for processing. Samples were collected according to the following table.
# Hematology: A 0.5 mL blood sample was collected using the anticoagulant K2EDTA. Blood smears were labelled, stained, and stored. The blood smears were analyzed according to the following parameters.
# (§6) Animals: The study used male and female Sprague Dawley rats purchased from Charles River UK Limited (Margate, Kent, UK). The target age at the initial dosing was 7-8 weeks. The target weight at the initial dosing was 175-300 g (males) and 120-250 g (females). Each animal was identified using a subcutaneously implanted electronic cylindrical, “glass-sealed” TROVAN microchip.
# [5] = system: Sprague Dawley rats; assay: 26 week oral gavage toxicity study in rats: coagulation; format: in vivo; conditions: 26 weeks; for Fibrinogen (FIB), Mean / Prothrombin Time (PT), Mean / Activated Partial Thromboplastic Time (APTT), Mean: male rats; for Fibrinogen (FIB), Mean: vehicle 2.61; for Prothrombin Time (PT), Mean: vehicle 10.25; for Activated Partial Thromboplastic Time (APTT), Mean: vehicle 12.92; for APTT compared to control / FIB concentration compared to control / PT compared to control: rats
# Description: as §4, §5
# Coagulation: A 0.5 mL blood sample was collected using the anticoagulant 3.8% (w/v) trisodium citrate for processing to plasma. To assess coagulation the following coagulation parameters were measured.
# as §6
# [6] = system: Sprague Dawley rats; assay: 26 week oral gavage toxicity study in rats: tolerability, clinical signs; format: in vivo; conditions: 6 g/kg/day oral gavage, replaced with 3 g/kg/day
# Description: as §4
# Due to the onset of clinical signs, including hunched posture, erect fur and abnormal gait and body weight loss, animals 3206M, 3515F and 3703F were given a dosing holiday from Day 45 and remaining Group 3 animals were given a dosing holiday from Day 48. Animals will start dosing at the lower dose level (3000 mg/kg/day) from Day 64. The following tables illustrate the treatments (Table 23) and animal groupings (Table 24) that were used in the study.
# Mortality/moribundity checks were made daily. […] Animals were not removed from the cage during observation, unless necessary for identification or confirmation of possible findings.
# Post-dose observations were made regularly throughout the day. […] The onset, intensity, and duration of these signs were recorded; particular attention was paid to the animals during and for the first hour after dosing. […]
# [7] = system: rats; conditions: oral once daily, 26 weeks, highest dose tested 1 mg/kg/day; cited from earlier work
# [8] = 0.5% HPMC dosing formulations; same preparation and storage conditions (4° C.); concentrations bracketing those used; cited from earlier work
# [9] = target: T1, type II TGF-β receptor (Homo sapiens, UniProt P37173); assay: Type II TGF-β receptor degradation in HepG2 cells; format: cell-based; conditions: increasing doses for 1 hour, then 200 pM TGF-β for 48 hours
# T1 construct: endogenous in cells; host or cells: HepG2
# Description: as §1, §2
# [10] = system: TβR-I (type I TGF-β receptor); assay: Sucrose density gradient analysis in Mv1Lu cells, TβR-I; format: cell-based, mink; conditions: 100 μM
# Description: as §3, with “receptors. […]” for “receptors.”
# [11] = system: TβR-III (type III TGF-β receptor, betaglycan); assay: Sucrose density gradient analysis in Mv1Lu cells, TβR-III; format: cell-based, mink; conditions: 100 μM, 0-24 hours
# Description: as §3, with “receptors. […]” for “receptors.”
# [12] = system: EGFR (epidermal growth factor receptor); assay: Sucrose density gradient analysis in Mv1Lu cells, EGFR; format: cell-based, mink; conditions: 100 μM, 0-24 hours
# Description: as §3, with “receptors. […]” for “receptors.”
# [13] = system: caveolin-1; assay: Sucrose density gradient analysis in Mv1Lu cells, caveolin-1; format: cell-based, mink; conditions: 100 μM, 0-24 hours
# Description: as §3, with “receptors. […]” for “receptors.”
# [14] = 6000/3000 mg/kg/day oral gavage
# T1 sequence (P37173 23-567): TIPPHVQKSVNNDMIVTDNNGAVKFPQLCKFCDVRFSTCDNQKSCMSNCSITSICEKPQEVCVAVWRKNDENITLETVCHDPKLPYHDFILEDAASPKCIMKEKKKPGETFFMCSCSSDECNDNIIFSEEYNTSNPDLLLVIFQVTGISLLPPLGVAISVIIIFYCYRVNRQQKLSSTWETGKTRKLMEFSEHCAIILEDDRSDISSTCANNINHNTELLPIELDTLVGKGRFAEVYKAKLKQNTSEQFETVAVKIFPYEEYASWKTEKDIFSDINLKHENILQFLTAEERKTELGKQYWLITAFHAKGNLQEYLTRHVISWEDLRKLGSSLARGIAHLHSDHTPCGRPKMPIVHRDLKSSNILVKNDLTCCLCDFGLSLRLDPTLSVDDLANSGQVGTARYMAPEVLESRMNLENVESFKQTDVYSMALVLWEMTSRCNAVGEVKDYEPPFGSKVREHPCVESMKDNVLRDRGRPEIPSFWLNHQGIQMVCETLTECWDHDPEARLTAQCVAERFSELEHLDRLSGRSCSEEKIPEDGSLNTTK
smiles,measurement,setting,value
"CC/C=C\C[C@H](O)/C=C/C=C\C/C=C\C/C=C\CCCC(=O)OCC [15-HEPE EE, 15-HEPE ethyl ester]",TGF-β induced EMT (pro-fibrotic) protein production,[1],blocked
same,TGF-β-stimulated intracellular signaling (SMAD2/3 phosphorylation),[2],inhibited
same,translocation and degradation of type II TGF-β receptors,[3],induced translocation and degradation
CC/C=C\C[C@H](O)/C=C/C=C\C/C=C\C/C=C\CCCC(=O)OCC [15(S)-HEPE EE],"Red blood cell count (RBC), Mean",[4]; 2000 mg/kg/day oral gavage,8.67 10^∧12/L
same,"Red Cell Distribution Width (RDW), Mean",[4]; 2000 mg/kg/day oral gavage,13.91** %
same,"Reticulocyte count (RETIC), Mean",[4]; 2000 mg/kg/day oral gavage,154.60* 10^∧9/L
same,"Red blood cell count (RBC), Mean",[4]; [14],8.81** 10^∧12/L
same,"Red Cell Distribution Width (RDW), Mean",[4]; [14],13.60** %
same,"Reticulocyte count (RETIC), Mean",[4]; [14],141.46** 10^∧9/L
same,RDW compared to control,"[4]; rats, 2 g/kg/day dose",significant decrease
same,RETIC compared to control,"[4]; rats, 2 g/kg/day dose",significant decrease
same,RBC compared to control,"[4]; rats, 3 g/kg/day dose",significant increase
same,RDW compared to control,"[4]; rats, 3 g/kg/day dose",significant decrease
same,RETIC compared to control,"[4]; rats, 3 g/kg/day dose",significant decrease
same,"Fibrinogen (FIB), Mean",[5]; 2000 mg/kg/day oral gavage,2.35** g/L
same,"Prothrombin Time (PT), Mean",[5]; 2000 mg/kg/day oral gavage,10.69** sec
same,"Activated Partial Thromboplastic Time (APTT), Mean",[5]; 2000 mg/kg/day oral gavage,15.03* sec
same,"Fibrinogen (FIB), Mean",[5]; [14],2.26** g/L
same,"Prothrombin Time (PT), Mean",[5]; [14],10.81** sec
same,"Activated Partial Thromboplastic Time (APTT), Mean",[5]; [14],15.73** sec
same,APTT compared to control,[5]; 2 g/kg/day dose,significant increase
same,FIB concentration compared to control,[5]; 2 g/kg/day dose,significant decrease
same,PT compared to control,[5]; 2 g/kg/day dose,significant increase
same,APTT compared to control,[5]; 3 g/kg/day dose,significant increase
same,FIB concentration compared to control,[5]; 3 g/kg/day dose,significant decrease
same,PT compared to control,[5]; 3 g/kg/day dose,significant increase
same,tolerability of the highest dose,[6],not well tolerated
same,adverse effects at the highest dose tested,[7],no adverse effects
same,stability of the test item in the vehicle,[8],stable
"CC/C=C\CC(O)/C=C/C=C\C/C=C\C/C=C\CCCC(=O)O (stereo not shown) [15-HEPE, 15-hydroxy-eicosa-5Z,8Z,11Z,13E,17Z-pentaenoic acid]",TGF-β induced EMT (pro-fibrotic) protein production,[1],blocked
same,degradation of type II TGF-β receptor,[9],induced degradation
same,TGF-β-stimulated intracellular signaling (SMAD2/3 phosphorylation),[2],inhibited
same,abundance of TβR-I proteins,"[10]; 37° C., 0, 1, 4, 24 hours",did not affect
same,translocation of TβR-I to lipid-raft,[10]; 24 hours treatment,induced translocation
same,TβR-II degradation,"[3]; Mv1Lu cells, 100 μM, 24 hours treatment",induce degradation
same,TβR-II translocation,"[3]; Mv1Lu cells, 100 μM, from 1 to 4 hours",induced TβR-II translocation
same,translocation and degradation of type II TGF-β receptors,[3],induced translocation and degradation
same,localization and abundance of TβR-III,[11],did not change
same,localization and abundance of EGFR,[12],did not change
same,localization and abundance of caveolin-1,[13],did not change
